Test results published in article PMC11816618, “Pharmacokinetic profile and in vivo anticancer efficacy of anagrelide administered subcutaneously in rodents” (Drug Delivery, 2025).

Tests used:
[1] = Long-term plasma exposure after a single SC ANA dose (56-day follow-up), plasma LC-MS/MS; assay type: in vivo, Sprague-Dawley rats; details: male SD rats, n = 5, 56-day follow-up
Procedure: To monitor the sustained release of SC ANA in the long term, 10 male SD rats were treated with a single dose of either 7.0 mg/kg (n = 5) or 35.0 mg/kg (n = 5). The rats were purchased from SPF Biotechnology Co. Ltd. (Beijing, China). Animals were acclimated to the test facility for at least three days, during which their general health was checked by veterinary staff or other authorized personnel. Animals were kept in polycarbonate cages containing absorbent corncob bedding, with a maintained temperature range of +20-25 °C and a 12-h light/dark cycle. Animals had access to food and drinking water ad libitum during acclimation and the experiment. At the end of the study, the rats were euthanized by exposure to an increasing concentration of CO2. […] The SC formulation was prepared by dissolving micronized ANA (5 μm particle size) in an oily triglyceride ester of saturated caprylic and capric fatty acids and glycerol (Miglyol® 810 N, IOI Oleo GmbH, Hamburg, Germany). […] To evaluate plasma concentration-time profiles, blood samples were collected from the jugular vein in EDTA tubes and stored at -70 °C until further analysis. […] In the second PK analysis in rats with a longer follow-up time, blood samples were collected at 0, 30 min, 1 […], and 56 d after dosage. SD rat plasma was analyzed for ANA, 3-OH-ANA, and RL603 concentrations by Pharmaron (Beijing, China). ANA, 3-hydroxy-anagrelide (CAS No. 733043-41-9, Cat. No. sc-206647, Santa Cruz Biotechnology, Inc., Dallas, TX), and RL603 (CAS No. 327602-34-6, Cat. No. sc-391661, Santa Cruz Biotechnology, Inc., Dallas, TX) were used as reference items in calibration standards and quality control (QC) samples. The HPLC and the MS/MS (LCMS-8060) instruments were both from SHIMADZU (Kyoto, Japan), and the column used was a Raptor Biphenyl column (2.7 μm, 50 × 2.1 mm, Restek, Bellefonte, PA). The desired serial concentrations of working solutions were achieved by diluting analyte stock solution with 50% acetonitrile in water. […] QC samples at 0.5, 1, 2, 50, and 800 ng/mL were prepared independently of those used for the calibration curves. These QC samples were prepared on the day of analysis in the same way as calibration standards. Carbamazepine (CAS No. 298-46-4, Sigma-Aldrich, St. Louis, MO) was used as an internal standard for all analytes. Altogether, 55 μL of standards, 55 μL of QC samples, and 55 μL of test samples (comprising 50 μL of plasma and 5 μL of blank solution) were added to 200 μL of acetonitrile containing an internal standard mixture to precipitate protein. The samples were then vortexed for 30 seconds. After centrifugation at 4000 × g (+4 °C) for 5 min, the supernatant was diluted threefold with water, and 2 μL of the diluted supernatant was injected into the LC/MS/MS system for quantitative analysis. The transitions were 256.00-198.90 m/z for anagrelide hydrochloride, 272.00-198.95 m/z for 3-hydroxy anagrelide, 216.00-198.95 m/z for RL603, and 237.20-194.10 m/z for carbamazepine. […] Plasma drug concentration-time profiles were drawn by the average plasma concentrations at specific time points using Microsoft Excel (Redmond, WA). […] Certara, Princeton, NJ) software. Averages of each variable were used when PK values were compared.

[2] = PK comparison between three administration routes (IV, PO, SC), plasma LC-MS/MS; assay type: in vivo, Sprague-Dawley rats; details: for Tmax: male, plasma, read-out: Tmax
Procedure: The rats were purchased from SPF Biotechnology Co. Ltd. (Beijing, China). Animals were acclimated to the test facility for at least three days, during which their general health was checked by veterinary staff or other authorized personnel. Animals were kept in polycarbonate cages containing absorbent corncob bedding, with a maintained temperature range of +20-25 °C and a 12-h light/dark cycle. Animals had access to food and drinking water ad libitum during acclimation and the experiment. At the end of the study, the rats were euthanized by exposure to an increasing concentration of CO2. […] The SC formulation was prepared by dissolving micronized ANA (5 μm particle size) in an oily triglyceride ester of saturated caprylic and capric fatty acids and glycerol (Miglyol® 810 N, IOI Oleo GmbH, Hamburg, Germany). […] To evaluate plasma concentration-time profiles, blood samples were collected from the jugular vein in EDTA tubes and stored at -70 °C until further analysis. […] In the second PK analysis in rats with a longer follow-up time, blood samples were collected at 0, 30 min, 1 […], and 56 d after dosage. SD rat plasma was analyzed for ANA, 3-OH-ANA, and RL603 concentrations by Pharmaron (Beijing, China). ANA, 3-hydroxy-anagrelide (CAS No. 733043-41-9, Cat. No. sc-206647, Santa Cruz Biotechnology, Inc., Dallas, TX), and RL603 (CAS No. 327602-34-6, Cat. No. sc-391661, Santa Cruz Biotechnology, Inc., Dallas, TX) were used as reference items in calibration standards and quality control (QC) samples. The HPLC and the MS/MS (LCMS-8060) instruments were both from SHIMADZU (Kyoto, Japan), and the column used was a Raptor Biphenyl column (2.7 μm, 50 × 2.1 mm, Restek, Bellefonte, PA). The desired serial concentrations of working solutions were achieved by diluting analyte stock solution with 50% acetonitrile in water. […] These QC samples were prepared on the day of analysis in the same way as calibration standards. Carbamazepine (CAS No. 298-46-4, Sigma-Aldrich, St. Louis, MO) was used as an internal standard for all analytes. Altogether, 55 μL of standards, 55 μL of QC samples, and 55 μL of test samples (comprising 50 μL of plasma and 5 μL of blank solution) were added to 200 μL of acetonitrile containing an internal standard mixture to precipitate protein. The samples were then vortexed for 30 seconds. After centrifugation at 4000 × g (+4 °C) for 5 min, the supernatant was diluted threefold with water, and 2 μL of the diluted supernatant was injected into the LC/MS/MS system for quantitative analysis. The transitions were 256.00-198.90 m/z for anagrelide hydrochloride, 272.00-198.95 m/z for 3-hydroxy anagrelide, 216.00-198.95 m/z for RL603, and 237.20-194.10 m/z for carbamazepine. […] Plasma drug concentration-time profiles were drawn by the average plasma concentrations at specific time points using Microsoft Excel (Redmond, WA). […] Certara, Princeton, NJ) software. Averages of each variable were used when PK values were compared.

[3] = analyte in plasma after single SC ANA dose 7 mg/kg
[4] = analyte in plasma after single SC ANA dose 35 mg/kg
[5] = Sprague-Dawley, rat, analyte in plasma after single ANA dose 0.5 mg/kg IV, male SD rats, n = 3, mean ± SD
[6] = Sprague-Dawley, rat, analyte in plasma after single ANA dose 2.5 mg/kg PO, male SD rats, n = 3, mean ± SD
[7] = Sprague-Dawley, rat, analyte in plasma after single SC ANA dose 7 mg/kg
[8] = Sprague-Dawley, rat, analyte in plasma after single SC ANA dose 35 mg/kg

O=C1NC2=Nc3ccc(Cl)c(Cl)c3CN2C1O (centres unmarked) [3-Hydroxy-anagrelide, 3′-hydroxy-anagrelide]
AUCinf [1, 3]: 699.77 ± 705.45 ng·h/mL
AUClast [1, 3]: 86.57 ± 60.96 ng·h/mL
Cmax [1, 3]: 0.46 ± 0.09 ng/mL
T1/2 [1, 3]: 1099 ± 945.8 h
Tmax [1, 3]: 19.00 ± 35.34 h
AUCinf [1, 4]: 2492.52 ± 2459.44 ng·h/mL
AUClast [1, 4]: 563.51 ± 106.90 ng·h/mL
Cmax [1, 4]: 1.75 ± 0.61 ng/mL
T1/2 [1, 4]: 377.8 ± 200 h
Tmax [1, 4]: 46.00 ± 95.07 h

NC1=Nc2ccc(Cl)c(Cl)c2CN1 [RL603, 2‐amino‐5,6‐dichloro‐3,4‐dihydroquinazolin]
Cmax [2, 5]: 12.3 ± 2.85 ng/mL
half-life [2, 5]: 0.98 ± 0.24 h
AUC(0-inf) [2, 6]: 34.8 ± 9.94 ng·h/mL
AUC(0-t) [2, 6]: 24.9 ± 4.29 ng·h/mL
Cmax [2, 6]: 3.48 ± 1.01 ng/mL
half-life [2, 6]: 13.1 ± 5.29 h
plasma concentration (not detected above the quantifiable limit) ([2]; after SC ANA 1.0 mg/kg, SD rats): < 0.2 ng/mL
Tmax ([2]; Sprague-Dawley, rat, iv, 0.5 mg/kg, analyte in plasma after single ANA dose 0.5 mg/kg IV, male SD rats, n = 3, mean ± SD): 1 ± 0.87 h
Tmax ([2]; Sprague-Dawley, rat, po, 2.5 mg/kg, analyte in plasma after single ANA dose 2.5 mg/kg PO, male SD rats, n = 3, mean ± SD): 1.67 ± 0.58 h
AUC(0-inf) [1, 7]: 1530 ± 1540 ng·h/mL
AUC(0-t) [1, 7]: 351 ± 85.7 ng·h/mL
half-life [1, 7]: 895 h
Cmax ([1]; Sprague-Dawley, rat, analyte in plasma after single SC ANA dose 7 mg/kg, read-out: Cmax): 1.08 ± 0.26 ng/mL
Tmax ([1]; Sprague-Dawley, rat, analyte in plasma after single SC ANA dose 7 mg/kg, read-out: Tmax): 19.6 ± 9.84 h
AUC(0-inf) [1, 8]: 2280 ± 1210 ng·h/mL
AUC(0-t) [1, 8]: 925 ± 141 ng·h/mL
half-life [1, 8]: 285 h
Cmax ([1]; Sprague-Dawley, rat, analyte in plasma after single SC ANA dose 35 mg/kg, read-out: Cmax): 2.4 ± 1.28 ng/mL
Tmax ([1]; Sprague-Dawley, rat, analyte in plasma after single SC ANA dose 35 mg/kg, read-out: Tmax): 92.8 ± 113 h
